What was measured:
[1] = Phase I pharmacokinetics, 72-h continuous infusion, whole-blood and urine HPLC
Excerpt: Brrtish Joumal of Cancer(1998) 78(10). 1329-1336 @ 1998 Cancer Research Campaign A phase I clinical and pharmacokinetic study of the new topoisomerase inhibitor G1147211 given as a 72-h continuous infusion L Paz-Aresl*, R Kunkal 2, D DeMarial-3, J Cassidy' 4, M Alden3, P Beranek2, S Kaye', D Littlefield2, D Reilly3, S Depee2, P Wissel2, C Twelves' and P O'Dwyer3 CRC Department of Medical Oncology. University of Glasgow. Westem Infirmary Hospital. Glasgow Gll 6NT. UK; 2Glaxo Wellcome Research. Five Moore Drive. Research Triangle Park. NC 27709. USA; 'Fox Chase Cancer Center. 7701 Burholme Avenue. Philadelphia, PA 19111. USA: 4Thomas Jefferson University. Kimmel Cancer Institute. Bluemle Life Sciences Building. 233 S. 10th Street. Suite 502. Philadelphia. PA 19107. […] This study was designed to determine the maximum tolerated dose of Gl147211 as a 72-h infusion and to describe its pharmacokinetics and pharmacodynamics on this schedule. In a single-arm, rising-dose study in patients with advanced cancer, eight cohorts of three or more patients received 72-h infusions of G1147211 at doses ranging from 0.25 to 2.5 mg m-2 day-'. […] Whole-blood G1147211 lactone, total blood and total concentrations were measured during and over the 12 h following the infusion. […] Extensive phase 11 evaluation of this compound and further phase I trials evaluating more prolonged infusions are ongoing. Keywords: G1147211: GG211: camptothecin analogues: topoisomerase I inhibitor; phase I trial; pharmacokinetics: pharmacodynamics: continuous infusion GI 147211 (7-4 methyl piperazinomethilene)- 10.1 1 -ethylenedioxy - 20-(S camptothecin: Figure 1) is a totally synthetic analogue of camptothecin. a natural product isolated from Camptotheca acuminata (WAall et al. 1966: Emerson et al. 1995). […] The nuclear enzyvme DNA topoisomerase I. x hich relaxes DNA supercoils arising during, replication and gene tran- scription. has been identified as the specific targret of camptothecin (Hsianer and Liu. 1988: Wall and Wani. 1995).

[2] = tested on: in vitro models; parameters: method as in Slichenmyer et al. 1993: Emerson et al. 1995; details: ref Slichenmyer et al. 1993: Emerson et al. 1995; cited from earlier work
[3] = tested on: colon (HT29 and SW480), breast (MX 1), ovarian (SKOV3), prostate (PC3) and lung (H460) carcinoma xenografts; parameters: method as in Emerson et al. 1986. 1993. 1994. 1995; details: nude mice; ref Emerson et al. 1986. 1993. 1994. 1995; cited from earlier work

Structure (SMILES): CC[C@@]1(O)C(=O)OCc2c1cc1n(c2=O)Cc2c-1nc1cc3c(cc1c2CN1CCN(C)CC1)OCCO3 [GI147211, 7-4 methyl piperazinomethilene)-10.1 1-ethylenedioxy - 20-(S camptothecin]
- Css ([1]; at doses of 1.2 mg m-2 day-1 and above): > 1 ng/mL
- Clearance, average ([1]; human, in vivo): 1074 ml min-1 m-2
- Mean clearance values, range over the dose range ([1]; human, in vivo): 776-1554 ml min-1 m-2
- Mean terminal elimination half-life ([1]; human, in vivo): 7.5 h
- Renal clearance, average ([1]; human, in vivo): 164 ml min-
- Clearance, mean ([1]; human, in vivo, 0.25 mg): 776 ml min-1 m-2
- Clearance, mean ([1]; human, in vivo, 0.5 mg): 864 ml min-1 m-2
- Clearance, mean ([1]; human, in vivo, 1 mg): 826 ml min-1 m-2
- Half-life, mean ([1]; human, in vivo, 1 mg): 7.9 h
- Clearance, mean ([1]; human, in vivo, 1.2 mg): 1279 ml min-1 m-2
- Half-life, mean ([1]; human, in vivo, 1.2 mg): 6.1 h
- Clearance, mean ([1]; human, in vivo, 1.5 mg): 1046 ml min-1 m-2
- Half-life, mean ([1]; human, in vivo, 1.5 mg): 7.4 h
- Clearance, mean ([1]; human, in vivo, 2 mg): 1290 ml min-1 m-2
- Half-life, mean ([1]; human, in vivo, 2 mg): 7.2 h
- Clearance, mean ([1]; human, in vivo, 2.5 mg): 1554 ml min-1 m-2
- Half-life, mean ([1]; human, in vivo, 2.5 mg): 8.5 h
- Total drug recovered unaltered in urine ([1]; in vivo): ~11%
- Variation in Css with dose level ([1]; in vivo): two- to threefold
- Clearance, mean ([1]; lactone, 1.75 mg m-2 day-1, n=3): 1138 ml min-1 m-2
- Css, mean ([1]; lactone, whole blood, 0.25 mg m-2 day-1, n=6): 0.25 ng/mL
- Css, mean ([1]; lactone, whole blood, 1.0 mg m-2 day-1, n=5): 0.86 ng/mL
- Css, mean ([1]; lactone, whole blood, 1.2 mg m-2 day-1, n=3): 0.74 ng/mL
- Css, mean ([1]; lactone, whole blood, 1.5 mg m-2 day-1, n=10): 1.09 ng/mL
- Css, mean ([1]; lactone, whole blood, 1.75 mg m-2 day-1, n=3): 1.10 ng/mL
- Css, mean ([1]; lactone, whole blood, 2.0 mg m-2 day-1, n=11): 1.09 ng/mL
- Css, mean ([1]; lactone, whole blood, 2.5 mg m-2 day-1, n=2): 1.21 ng/mL
- Mean fraction of drug excreted unchanged in the urine (fe) ([1]; total drug in urine, 15 subjects): 0.114
- Total blood concentrations (lactone plus carboxylate) relative to lactone concentrations ([1]; whole blood): approximately four
- Activity relative to topotecan [2]: 2-5 times more active
- Anti-tumour activity in xenografts [3]: confirmed the anti-tumour actixitv

Reference: paper PMC2063170, “A phase I clinical and pharmacokinetic study of the new topoisomerase inhibitor GI147211 given as a 72-h continuous infusion” (British Journal of Cancer, 1998)
